Our source for the relative viability values is the supplement of paper PMC10307832.

Test in all cases: relative viability (nuclei count vs DMSO), 5 days (fraction); higher = more cells survive
Compound in the assay “Carfilzomib + Navitoclax”: CC(C)C[C@H](NC(=O)[C@H](CCc1ccccc1)NC(=O)CN1CCOCC1)C(=O)N[C@@H](Cc1ccccc1)C(=O)N[C@@H](CC(C)C)C(=O)[C@@]1(C)CO1 [Carfilzomib] + CC1(C)CCC(c2ccc(Cl)cc2)=C(CN2CCN(c3ccc(C(=O)NS(=O)(=O)c4ccc(N[C@H](CCN5CCOCC5)CSc5ccccc5)c(S(=O)(=O)C(F)(F)F)c4)cc3)CC2)C1 [Navitoclax] (partner 0.5 µM)
An outline of the steps:
(§1)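 After 5 days of treatment, lung cancer cells in 1536-well plates were fixed and stained in a single step (final 0.05% Triton X-100, 1% formaldehyde, 1 ug/ml Hoechst) and their nuclei counted on 4× images. Treatment had been applied by pin tool the day after seeding as one drug alone or as a fixed anchor-drug dose with five library-drug doses (not always all listed) in √10 steps. Relative viability is the nuclei count of treated wells divided by that of vehicle wells, and values are medians of duplicate plates.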

Compound in the assay “Carfilzomib + Pictilisib”: CC(C)C[C@H](NC(=O)[C@H](CCc1ccccc1)NC(=O)CN1CCOCC1)C(=O)N[C@@H](Cc1ccccc1)C(=O)N[C@@H](CC(C)C)C(=O)[C@@]1(C)CO1 [Carfilzomib] + CS(=O)(=O)N1CCN(Cc2cc3nc(-c4cccc5[nH]ncc45)nc(N4CCOCC4)c3s2)CC1 [Pictilisib] (partner 1 µM)
An outline of the steps:
as §1

Compound in the assay “Carfilzomib + Decitabine”: CC(C)C[C@H](NC(=O)[C@H](CCc1ccccc1)NC(=O)CN1CCOCC1)C(=O)N[C@@H](Cc1ccccc1)C(=O)N[C@@H](CC(C)C)C(=O)[C@@]1(C)CO1 [Carfilzomib] + Nc1ncn([C@H]2C[C@H](O)[C@@H](CO)O2)c(=O)n1 [Decitabine] (partner 2 µM)
An outline of the steps: as §1

Compound in the assay “Crizotinib + Trametinib”: C[C@@H](Oc1cc(-c2cnn(C3CCNCC3)c2)cnc1N)c1c(Cl)ccc(F)c1Cl [Crizotinib] + CC(=O)Nc1cccc(-n2c(=O)n(C3CC3)c(=O)c3c(Nc4ccc(I)cc4F)n(C)c(=O)c(C)c32)c1 [Trametinib] (partner 0.02 µM)
In a few lines:
as §1

Compound in the assay “Crizotinib + AZD7762”: C[C@@H](Oc1cc(-c2cnn(C3CCNCC3)c2)cnc1N)c1c(Cl)ccc(F)c1Cl [Crizotinib] + NC(=O)Nc1cc(-c2cccc(F)c2)sc1C(=O)N[C@H]1CCCNC1 [AZD7762] (partner 0.2 µM)
An outline of the steps:
as §1

Regarding NCI-H1793, the relative viability with Carfilzomib + Navitoclax (first compound 0.003162 µM) came out at 0.497; in the assay with Carfilzomib + Navitoclax (first compound 0.01 µM), 0.52; with Carfilzomib + Navitoclax (first compound 0.03162 µM), 0.462; with Carfilzomib + Navitoclax (first compound 0.1 µM), 0.195; with Carfilzomib + Pictilisib (first compound 0.003162 µM), 0.328; with Carfilzomib + Pictilisib (first compound 0.01 µM), 0.293. Also, the relative viability was 0.335 in the assay with Carfilzomib + Pictilisib (first compound 0.03162 µM); 0.248 with Carfilzomib + Pictilisib (first compound 0.1 µM); 0.494 in the assay with Carfilzomib + Decitabine (first compound 0.001 µM); 0.61 with Carfilzomib + Decitabine (first compound 0.003162 µM); 0.531 with Carfilzomib + Decitabine (first compound 0.01 µM); 0.562 with Carfilzomib + Decitabine (first compound 0.03162 µM). The relative viability in the assay with Carfilzomib + Decitabine (first compound 0.1 µM) came out at 0.194; in the assay with Crizotinib + Trametinib (first compound 0.03162 µM) it was 0.467; with Crizotinib + Trametinib (first compound 0.1 µM), 0.399; in the assay with Crizotinib + Trametinib (first compound 1 µM), 0.461; with Crizotinib + AZD7762 (first compound 0.03162 µM), 0.435; with Crizotinib + AZD7762 (first compound 0.1 µM) it was 0.41. The relative viability in the assay with Crizotinib + AZD7762 (first compound 1 µM) worked out at 0.621.
